Laboratory results taken from US12473250B2, “Molecular design of new antibiotics and antibiotic adjuvants against MCR strains” (priority 2019, dated 2025).

Tests used:
Format in all cases: cell-based
[1] = tested on: colistin resistant MCR (+) E. Coli strains; test: MIC, broth microdilution, compound alone; details: for MIC: compound alone
Protocol: MIC experiments of the antimicrobial agents were determined by a modified broth microdilution method in accordance with the Clinical and Laboratory Standards Institute (CLSI) guidelines using 96 well culture plates. In brief, serial dilutions of all plates were prepared at different concentrations (μg). The inoculum suspension was prepared by adding isolated colonies from a 18-20 hours on TSA plate into phosphate buffer (0.31 mM, pH 7.2) or in water for injection (BBraun) and adjusting the suspension to a turbidity equivalent to 0.5 McFarland Standard. Each well contained a final bacterial concentration of approximately 5×10^5 colony forming units (CFU)/mL. The plate was covered and incubated at 35° C. for 24 hours. […] For the microdilution plates, turbidity in wells can be measured at OD600 using TECAN infinite M200Pro. MIC was determined as […] concentration that gives a 99 percent inhibition.

[2] = tested on: colistin resistant MCR (+) E. Coli strains; test: Synergy study: colistin MIC in the presence of compound; details: for Colistin MIC in the presence of the compound: compound at 10 μg (Table 2a: 10 ug/ml)
Protocol: (§1) The MICs of the individual drugs and LC compound in combinations were determined using the broth microdilution technique as recommended by the CLSI whereby the two anti-microbial agents were added in an equal amount. (e.g.: 50 μL of Colistin: 50 μL of LC compounds). Diluted media containing compounds and antibiotics will be serially diluted 2-fold, and LC compounds and antibiotics alone or in combination will be assayed at fixed synergy concentration. In all cases, the lowest concentration at which no visible growth occurred was be recorded to be the MIC value of individual and combined antibacterial agents. The results were obtained after 24 hours of incubation.

various pathogens = test: microbe, parasite or virus in culture
Protocol: as §1
Using the combination of LC100 and colistin, the activity of a broad range of strains was further tested (Table 7).

[3] = Escherichia coli, 6093560257 [MCR 1+, E. Coli, NDM-1]
[4] = Escherichia coli, 7103531927 [MCR 1+, E. Coli, KPC+]
[5] = Escherichia coli, 7113636863 [MCR 1+, E. Coli, NDM-1]
[6] = Escherichia coli, E. Coli CRE 11804
[7] = Escherichia coli, E. Coli CRE 17528

| Compound | concentration at which the compound shows synergy with colistin ([2]; against mcr-1 bacteria) [µg/mL] | MIC (various pathogens; [3]) [µg/mL] | MIC (various pathogens; [4]) [µg/mL] | MIC (various pathogens; [5]) [µg/mL] | MIC (various pathogens; [6]) [µg/mL] | MIC (various pathogens; [7]) [µg/mL] | MIC (various pathogens; KLPN CRE 7955) [µg/mL] | MIC (various pathogens; KLPN CRE 16260) [µg/mL] | MIC (various pathogens; KLPN CRE 55301) [µg/mL] | MIC (various pathogens; PAE DM 4150) [µg/mL] | MIC (various pathogens; PAE DM 23155) [µg/mL] | MIC (various pathogens; PAE DM 23257) [µg/mL] | MIC (various pathogens; PAE DM 23376) [µg/mL] | MIC (various pathogens; PAE DR 4877) [µg/mL] | MIC (various pathogens; PAE DU 14476) [µg/mL] | also measured |
| --- | --- | --- | --- | --- | --- | --- | --- | --- | --- | --- | --- | --- | --- | --- | --- | --- |
| CC1(C)C=Cc2c(ccc3c2OCC(c2ccc(OCCCCN(Cc4ccccn4)Cc4ccccn4)cc2OCCCCN(Cc2ccccn2)Cc2ccccn2)C3)O1 (centres unmarked) [GLA-DPA] | 5 |  |  |  |  |  |  |  |  |  |  |  |  |  |  | antimicrobial activity when used alone ([1]; colistin resistant bacteria, in words): limited antimicrobial activity; synergy with colistin ([2]; against mcr-1 bacteria, in words): restore the sensitivity of E. coli with mcr-1 to colistin |
| CCN(CC)CCCCOc1ccc(/C=C/C(=O)c2ccc(OCCCCN(CC)CC)cc2O)cc1 [LC107] |  |  |  |  |  |  |  |  |  |  |  |  |  |  |  | MIC ([1]; strain 6075066346, MCR (+)): >100 µg/mL; MIC ([1]; strain 6083655967, MCR (+)): >100 µg/mL; MIC ([1]; strain 6103645107, MCR (+)): >100 µg/mL; MIC ([1]; strain 6123520276, MCR (+)): >100 µg/mL; MIC ([1]; strain 7013177695, MCR (+)): >100 µg/mL; MIC ([1]; strain 7023436560, MCR (+)): >100 µg/mL; MIC ([1]; strain 7028444207 (Table 1b), MCR (+)): >100 µg/mL; Colistin MIC in the presence of the compound ([2]; strain 6075066346, MCR(+)): 3.125 µg/mL; Colistin MIC in the presence of the compound ([2]; strain 6083655967, MCR(+)): 3.125 µg/mL; Colistin MIC in the presence of the compound ([2]; strain 6103645107, MCR(+)): 3.125 µg/mL; Colistin MIC in the presence of the compound ([2]; strain 6123520276, MCR(+)): 3.125 µg/mL; Colistin MIC in the presence of the compound ([2]; strain 7013177695, MCR(+)): 3.125 µg/mL; Colistin MIC in the presence of the compound ([2]; strain 7023436560, MCR(+)): 6.25 µg/mL; Colistin MIC in the presence of the compound ([2]; strain 7023444207, MCR(+)): 6.25 µg/mL |
| C[C@@H](O)[C@H]1C(=O)N2C(C(=O)O)=C(S[C@@H]3CN[C@H](C(=O)Nc4cccc(C(=O)O)c4)C3)[C@H](C)[C@H]12 [Ertapenem] |  | 25 | 12.5 | > 50 | 25 | > 25 | > 25 | > 50 | > 25 | > 25 | 12.5 | > 25 | > 25 | > 25 | > 25 | MIC (various pathogens; Escherichia coli, E. Coli CRE 17232): 1.56 µg/mL; MIC (various pathogens; PAE DR 5790): > 25 µg/mL |
| Cc1cc(OCCCCN(Cc2ccccn2)Cc2ccccn2)cc(OCCCCN(Cc2ccccn2)Cc2ccccn2)c1 [Orc-DPA] | 50 |  |  |  |  |  |  |  |  |  |  |  |  |  |  |  |
| C[C@@H](O)[C@H]1C(=O)N2C(C(=O)O)=C(S[C@@H]3CN[C@H](CNS(N)(=O)=O)C3)[C@H](C)[C@H]12 [Doripenem] |  | 50 | 1.56 | 25 | > 25 | 1.56 | > 25 | > 50 | 1.56 | 6.25 | 0.195 | 0.78 | 0.78 | 0.78 | > 25 | MIC (various pathogens; Escherichia coli, 6083655967 [MCR 1+, E. Coli]): < 0.0975 µg/mL; MIC (various pathogens; Escherichia coli, 6123520276 [MCR 1+, E. Coli]): < 0.0975 µg/mL; MIC (various pathogens; Escherichia coli, 7023436560 [MCR 1+, E. Coli]): < 0.0975 µg/mL; MIC (various pathogens; Escherichia coli, 7023444207 [MCR 1+, E. Coli]): < 0.0975 µg/mL; MIC (various pathogens; Escherichia coli, 7023446108 [MCR 1−, E. Coli]): 0.0975 µg/mL; MIC (various pathogens; Escherichia coli, 7033607097 [MCR 1−, E. Coli]): < 0.0975 µg/mL; MIC (various pathogens; KLPN CRE 27025): 25 µg/mL; MIC (various pathogens; PAE DR 5790, ¼ MHB): 12.5 µg/mL |
